Experiments:
A549 cells [1] = assay: DNA damage response induced by cisplatin (nuclear foci, confocal microscopy); type: cell-based; conditions: 7 h following cisplatin exposure, miRNA overexpression
Experimental: A549 cells overexpressing miR-24-3p were exposed to cisplatin for 7 h and nuclear foci of (i) phosphorylated histone H2A.X at SER139 (y-HAX) and (ii) phosphorylated ATM at Ser1981 (p-ATM) were assessed by confocal microscopy.
(C): percentage of cells (n=3) exposed to cisplatin and containing more than five nuclear foci of y-HAX and phosphor-ATM, respectively after miR-24-3p overexpression.
Immunofluorescence analysis. A549 cells were grown on a Round Glass Coverslips Ø16 mm (thermo scientific) placed inside a 12 Multiwell Plate. Coverslips slides were washed in phosphate-buffered saline and fixed in 4% paraformaldehyde for 15 min, cells were then permeated using 0.1% Triton X-102 (Agilent Technologies) for 10 min. and blocked with PBS solution containing BSA (3%) for 30 min. Incubation with primary antibodies was performed in a blocking solution BSA (1%) at 37° C. for 1 h. After three washes with PBS, cells were incubated with secondary antibodies. Forty five min later, Coverslips slides were fixed on microscope slides using ProLong Gold Antifade Reagent with DAPI (Invitrogen). Fluorescence was viewed with an FV10i Olympus confocal scanning microscope.

H1299 cells = assay: Cisplatin resistance validation in H1299 cells; type: cell-based; conditions: H1299, homozygous partial deletion of the TP53 gene
Source text: (A) Kill curve of H1299 cells (with a homozygous partial deletion of the TP53 gene) overexpressing miR-24-3p or a miRNA control and exposed to increasing dose of cisplatin.
(§1) (B) Validation of the effects of cisplatin in two LUAD cell lines, H1299 (with a homozygous partial deletion of the TP53 gene) and H1975 (homozygous for the c.818G<A mutation of the TP53 gene).
(§2) Transfection. Pre-miR-24-3p, and control miRNA (miR-Neg #1) were purchased from Life technologies. For miR-24-3p knockdown experiments, LNA anti-miR-24-3p and LNA negative control were ordered from Exiqon. siRNA directed against BIM, PUMA, PNPO and PDXK were purchased from Life technologies. A549 and H1299 cells were grown in 10% FCS in DMEM and transfected at 30 to 40% confluency in 6-12- or 96 well plates using Lipofectamin RNAi MAX™ (Life technologies) with pre-miRNA, siRNAs LNA inhibitors at a final concentration of 5 nM unless indicated.
Functional genetic screen validation for miR-24-3p. Data were confirmed independently on a distinct lung adenocarcinoma cell line (H1299). Specificity to cisplatin resistance was assessed using docetaxel and vinorelbine.

A549 cells [2] = assay: Caspase 3 dependent apoptotic response induced by cisplatin (Western blot); type: cell-based; conditions: miRNA overexpression in A549 cells
A549 cells [3] = assay: Cisplatin sensitivity of A549 cells overexpressing miRNA (Annexin V/PI, ATP-based viability); type: cell-based
Experimental: A549 cells were transfected with pre-miR-24-3p for 2 days and the transfected cells were then exposed to either cisplatin or vinorelbin.
(A): Annexin V/PI staining of A549 cells overexpressing miR-24-3p and exposed to 60 μM cisplatin for 24 h.
(B): Vinorelbin dose response analysis of A549 cells overexpressing miR-24-3p. An ATP-based assay was used to assess cell viability.
as §2
Annexin V assay. Annexin-V-FITC apoptosis detection kit (Life technologies) was used to detect apoptotic activity. […] Annexin-V-FITC binding was determined by flow cytometry (excitation wavelength of 488 nm; emission wavelength of 530 nm) using the FITC signal detector (FL1), and propidium iodide staining was detected by the phycoerythrin emission signal detector (FL2).

PUMA 3′UTR = assay: Luciferase assay, PUMA 3′UTR psiCHECK-2 construct in HEK293 cells; type: cell-based, human; conditions: two days after co-transfection, versus pre-miR-Neg
Experimental: (§3) (B): Results of luciferase assays in HEK293 cells transfected with the indicated constructions and pre-miR-24-3p or control miRNA.
(§4) Cells were harvested two days after transfection and luciferase activity were analysed. All renilla luciferase activities were normalized with firefly luciferase activity. **p<0.01.
(§5) Luciferase assay. Molecular constructs were made in psiCHECK-2 (Promega) by cloning behind the Renilla luciferase in the XhoI and NotI restrictions sites, annealed oligonucleotides derived from BIM, PUMA 3′ UTR. HEK293 cells were plated into 96-well and cotransfected using lipofectamin 2000 (Invitrogen) with 0.2 μg of psiCHECK-2 plasmid construct and pre-miR-24-3p or control miRNA at different concentrations. 48 hours after transfection, Firefly and Renilla Luciferase activities were measured using the Dual-Glo Luciferase assay (Promega).

H1975 cells = assay: Cisplatin resistance validation in H1975 cells; type: cell-based; conditions: H1975, homozygous c.818G>A mutation of the TP53 gene
Source text: as §1

A549 cells [4] = assay: Functional genetic screen for miRNAs inducing cisplatin resistance; type: cell-based; conditions: pre-miR library transfected two days, then cisplatin 60 μM three days, Cell Titer Glow assay
Experimental: A549 cells were transfected with the pre-miR library for two days and the transfected cells were then exposed to cisplatin at 60 μM for three days. Cell viability was measured in single well using Cell Titer Glow assay.
(A): Plot of normalized viability versus −log10 FDR-adjusted P-value for all miRNAs overexpressed in A549 cells. Vertical dashed lines denote the selected normalized viability cutoff, while the Horizontal line denotes the 0.01 selected FDR-adjusted P-value cutoff. Each dot represents a miRNA. Dots surrounded in the upper right quadrant represent miRNAs associated with cisplatin resistance at the chosen cutoffs. The standardized residual viability of the miR-24-3p miRNA was estimated at 4.9512.
Functional genetic screen. Mimics were transfected in authenticated A549 lung adenocarcinoma cell line in 96 well plate format. 48 h following transfection, cells were exposed to cisplatin at 60 μM (2 times DL50; DL50 corresponding to the drug concentration lethal to 50% of the tumor cells) for three days. Viability was assessed using the cell titer glo assay (Promega). […]
miRNA candidate selection. miRNA candidates were selected for further analysis based on statistical significance (p<0.01) and degree of resistance induced (assessed by viability after drug exposure, normalized viability above 3).

human BIM 3′UTR = assay: Luciferase assay, BIM 3′UTR psiCHECK-2 construct in HEK293 cells; type: cell-based; conditions: two days after co-transfection, versus pre-miR-Neg
Experimental: as §3, §4, §5

Question: Which ATM signaling (A549 cells [1]) does the source give for “pre-miR-24-3p: miRNA mimic purchased from Life technologies, used to overexpress miR-24-3p (UGGCUCAGUUCAGCAGGAACAG, SEQ ID No:1) (listed as RNA, chemistry not given here)” here?
Answer: The ATM signaling was “decreased ATM signaling”.

Question: What about the “DNA damage (phospho-yH2AX nuclear foci)” value (A549 cells [1]) of the same substance?
Answer: The value was “less DNA damage”.

Question: What about the cisplatin resistance (H1299 cells) of the same substance?
Answer: Its cisplatin resistance is “contributed to cisplatin resistance independently of p53”.

Question: And the “caspase 3 dependent apoptotic response induced by cisplatin” value (A549 cells [2])?
Answer: Its value is “strongly inhibits”.

Question: And the “resistance to platinum based-compounds (cisplatin, carboplatin, oxaliplatin)” value (A549 cells [3]; A549 cells overexpressing the miRNA, comparison with vinorelbin treatment)?
Answer: The value was “strongly resistant”.

Question: What about the response to cisplatin (A549 cells [3]; A549 cells transfected with pre-miR, versus cells not overexpressing miR-24-3p) of the same substance?
Answer: The response to cisplatin was “the response to cisplatin was lesser”.

Question: And the “direct targeting of PUMA 3′UTR (renilla luciferase normalized with firefly)” value (PUMA 3′UTR)?
Answer: The value was “direct targets”.

Question: What about the cisplatin resistance (H1975 cells) of the same substance?
Answer: The cisplatin resistance was “contributed to cisplatin resistance independently of p53”.

Question: What about the standardized residual viability (A549 cells [4]) of the same substance?
Answer: The standardized residual viability was 4.9512.

Question: And the “direct targeting of BIM 3′UTR (renilla luciferase normalized with firefly)” value (human BIM 3′UTR)?
Answer: Its value is “direct targets”.

Reference: patent publication US20220389420A1, “AGENTS FOR THE TREATMENT OF PATIENTS WITH NSCLC AND METHODS TO PREDICT RESPONSE” (CENTRE NATIONAL DE LA RECHERCHE SCIENTIFIQUE, priority 2016, published 2022)
